Values of other authors in patent publication US11103490B2, “Clevidipine emulsion formulations containing antimicrobial agents” (Chiesi Farmaceutici, S.P.A., priority 2010, dated 2021).

Key:
[1] = in vivo

initial phase half-life [1]: about one
terminal half-life [1]: approximately 15 minutes
solubility in lipids: moderate to high
solubility in water: low
SMILES: CCCC(=O)OCOC(=O)C1=C(C)NC(C)=C(C(=O)OC)C1c1cccc(Cl)c1Cl (stereo not shown) [Clevidipine, clevidipine]
